In one data set the target is human HER2/ErbB2 (Homo sapiens, UniProt P04626). Description: HTScan Receptor Kinase Assay, HER2/ErbB2.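 Also: europium time-resolved fluorescence detection of anti-phosphotyrosine antibody binding to biotinylated FLT3 (Tyr589) peptide phosphorylated by the kinase, 30 min reaction at room temperature.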
Another data set relates to HDAC. Description: HDAC fluorimetric assay kit (AK-500, Biomol), HeLa nuclear extract. In kind it is biochemical. The method, then:
HDAC inhibitors were screened using an HDAC fluorimetric assay kit (AK-500, Biomol, Plymouth Meeting, Pa.). […] Each assay was setup as follows: Defrosted all kit components and kept on ice until use. […] Prepared dilutions of Trichostatin A (TSA, positive control) and tested compounds in assay buffer (5× of final concentration). Diluted Fluor de Lys™ Substrate in assay buffer to 100 uM (50 fold=2× final). Diluted Fluor de Lys™ developer concentrate 20-fold (e.g. 50 μl plus 950 μl Assay Buffer) in cold assay buffer. Second, diluted the 0.2 mM Trichostatin A 100-fold in the 1× Developer (e.g. 10 μl in 1 ml; final Trichostatin A concentration in the 1× Developer=2 μM; final concentration after addition to HDAC/Substrate reaction=1 μM). Added Assay buffer, diluted trichostatin A or test inhibitor to appropriate wells of the microtiter plate. Added diluted HeLa extract or other HDAC sample to all wells except for negative controls.

The next data set deals with human VEGFR2 (Homo sapiens, UniProt P35968). Nature of the data set: HTScan Receptor Kinase Assay, VEGFR2.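 Also: recombinant GST-His-tagged human VEGFR2 kinase domain phosphorylating biotinylated gastrin precursor peptide, 30 min at room temperature, phosphotyrosine detected by Europium-labelled antibody time-resolved fluorescence.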
Chain of human VEGFR2 (P35968 807-1356 limits assumed): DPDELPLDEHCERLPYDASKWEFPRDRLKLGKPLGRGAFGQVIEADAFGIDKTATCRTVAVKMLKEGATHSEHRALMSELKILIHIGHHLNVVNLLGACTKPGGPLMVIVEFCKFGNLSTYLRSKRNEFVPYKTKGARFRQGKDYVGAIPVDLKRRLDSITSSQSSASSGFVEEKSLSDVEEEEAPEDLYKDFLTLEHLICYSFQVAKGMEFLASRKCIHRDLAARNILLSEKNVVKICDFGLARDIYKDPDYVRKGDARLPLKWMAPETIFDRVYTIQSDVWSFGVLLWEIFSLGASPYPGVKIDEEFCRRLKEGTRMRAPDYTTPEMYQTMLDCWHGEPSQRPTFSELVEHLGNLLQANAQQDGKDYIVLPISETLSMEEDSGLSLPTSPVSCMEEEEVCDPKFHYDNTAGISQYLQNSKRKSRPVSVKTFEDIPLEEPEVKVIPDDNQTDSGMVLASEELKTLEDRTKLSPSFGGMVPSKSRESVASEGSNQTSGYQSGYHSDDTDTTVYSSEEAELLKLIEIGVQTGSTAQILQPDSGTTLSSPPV
In the next data set the target is T1, human EGFR (Homo sapiens, UniProt P00533).
T1 construct: human EGFR (His672-Ala1210); GST (N); purchased Cell Signaling Technologies; host or cells: baculovirus expression system
T1 sequence (P00533 672-1210): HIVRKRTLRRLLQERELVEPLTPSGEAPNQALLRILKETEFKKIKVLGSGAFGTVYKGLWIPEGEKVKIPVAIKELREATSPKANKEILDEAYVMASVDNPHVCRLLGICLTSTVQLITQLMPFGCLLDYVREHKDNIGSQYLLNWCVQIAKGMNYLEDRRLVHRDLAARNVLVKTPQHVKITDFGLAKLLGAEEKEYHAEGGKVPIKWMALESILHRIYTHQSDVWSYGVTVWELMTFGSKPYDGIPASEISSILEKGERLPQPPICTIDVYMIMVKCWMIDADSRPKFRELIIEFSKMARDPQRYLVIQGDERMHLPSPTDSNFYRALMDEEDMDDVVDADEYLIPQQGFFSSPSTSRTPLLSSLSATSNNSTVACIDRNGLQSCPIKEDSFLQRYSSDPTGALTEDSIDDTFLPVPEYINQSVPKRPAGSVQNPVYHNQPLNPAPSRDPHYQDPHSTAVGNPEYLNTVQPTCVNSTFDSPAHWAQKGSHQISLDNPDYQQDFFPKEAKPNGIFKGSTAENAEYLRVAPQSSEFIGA
Nature of the data set: HTScan Receptor Kinase Assay, EGFR. It is filed as biochemical.

Molecules are shown by their SMILES. Where only a bound is given, the exact number is not on record here.

The term IC50 denotes the concentration at which inhibition is half-maximal. A lower IC50 goes with greater potency. As usually defined, the melting point is the temperature, or range, at which the solid turns liquid.

Chain of human HER2/ErbB2 (P04626 676-1255): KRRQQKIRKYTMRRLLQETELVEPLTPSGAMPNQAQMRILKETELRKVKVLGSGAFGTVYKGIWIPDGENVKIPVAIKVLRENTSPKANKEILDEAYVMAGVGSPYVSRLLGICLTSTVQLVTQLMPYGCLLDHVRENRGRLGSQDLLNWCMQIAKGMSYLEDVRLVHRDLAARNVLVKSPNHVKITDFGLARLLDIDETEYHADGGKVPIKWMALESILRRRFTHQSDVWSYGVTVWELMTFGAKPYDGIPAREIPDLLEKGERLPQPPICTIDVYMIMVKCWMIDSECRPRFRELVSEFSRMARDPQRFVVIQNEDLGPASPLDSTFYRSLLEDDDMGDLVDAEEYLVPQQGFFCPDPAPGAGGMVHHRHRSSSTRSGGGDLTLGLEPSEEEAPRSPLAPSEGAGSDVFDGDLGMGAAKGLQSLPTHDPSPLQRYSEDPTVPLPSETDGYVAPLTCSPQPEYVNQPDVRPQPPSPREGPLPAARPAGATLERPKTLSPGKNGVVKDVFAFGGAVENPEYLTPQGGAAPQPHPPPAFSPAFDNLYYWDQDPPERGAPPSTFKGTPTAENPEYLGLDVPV
Procedure for human HER2/ErbB2: (§1) The ability of compounds to inhibit receptor kinase (EGFR, HER2/ErbB2, and VEGFR2) activity was assayed using HTScan™ Receptor Kinase Assay Kits (Cell Signaling Technologies, Danvers, Mass.). […] VEGFR2 tyrosine kinase was produced using a baculovirus expression system from a construct containing a human VEGFR2 cDNA kinase domain (Asp805-Val1356) (GenBank accession No. AF035121) fragment amino-terminally fused to a GST-HIS6-Thrombin cleavage site. The proteins were purified by one-step affinity chromatography using glutathione-agarose. An anti-phosphotyrosine monoclonal antibody, P-Tyr-100, was used to detect phosphorylation of biotinylated substrate peptides (EGFR, Biotin-PTP1B (Tyr66); HER2/ErbB2, Biotinylated FLT3 (Tyr589); VEGFR2, Biotin-Gastrin Precursor (Tyr87).). […] Fluorescence was measured on a WALLAC Victor 2 plate reader and reported as relative fluorescence units (RFU). Data were plotted using GraphPad Prism (v4.0a) and IC50's calculated using a sigmoidal dose response curve fitting algorithm.
(§2) Each assay was setup as follows: Added 100 μl of 10 mM ATP to 1.25 ml 6 mM substrate peptide. Diluted the mixture with dH20 to 2.5 ml to make 2×ATP/substrate cocktail ([ATP]=400 mM, [substrate]=3 mM). Immediately transfer enzyme from −80° C. to ice. Allowed enzyme to thaw on ice. Microcentrifuged briefly at 4° C. to bring liquid to the bottom of the vial. Returned immediately to ice. […] Transfer 1.25 ml of DTT/Kinase buffer to enzyme tube to make 4× reaction cocktail ([enzyme]=4 ng/μL in 4× reaction cocktail). […] Incubated reaction plate at room temperature for 30 minutes. Added 50 μl/well Stop Buffer (50 mM EDTA, pH 8) to stop the reaction. Transferred 25 μl of each reaction and 75 μl dH2O/well to a 96-well streptavidin-coated plate and incubated at room temperature for 60 minutes. Washed three times with 200 μl/well PBS/T (PBS, 0.05% Tween-20). […] Added 100 μl/well primary antibody. Incubated at room temperature for 60 minutes. Washed three times with 200 μl/well PBS/T. Diluted Europium labeled anti-mouse IgG 1:500 in PBS/T with 1% BSA. Added 100 μl/well diluted antibody. Incubated at room temperature for 30 minutes. Washed five times with 200 μl/well PBS/T. Added 100 μl/well DELFIA® Enhancement Solution. Incubated at room temperature for 5 minutes.
Procedure for human VEGFR2: as §1, §2

As to `C[C@@H](Nc1ncnc2[nH]c(-c3ccc(OCC(=O)NO)cc3)cc12)c1ccccc1` [Compound 17, (R)—N-hydroxy-2-(4-(4-(1-phenylethylamino)-7H-pyrrolo[2,3-d]pyrimidin-6-yl)phenoxy)acetamide], the melting point is 116.8 to 126.8 °C. For the same compound, the IC50 against human HER2/ErbB2 is < 100 nM. The IC50 with HDAC is < 100 nM. This compound also displayed an IC50 on human VEGFR2 of 1000 to 10000 nM. Moreover, on human EGFR, the IC50 is < 100 nM.

Consider `C[C@@H](Nc1ncnc2[nH]c(-c3ccc(OCCCCCCC(=O)NO)cc3)cc12)c1ccccc1` [Compound 22, (R)—N-hydroxy-7-(4-(4-(1-phenylethylamino)-7H-pyrrolo[2,3-d]pyrimidin-6-yl)phenoxy)heptanamide], for which the IC50 against human HER2/ErbB2 was 100 to 1000 nM; with HDAC, < 100 nM; at human VEGFR2, < 100 nM; against human EGFR, < 100 nM.

As to `C[C@@H](Nc1ncnc2[nH]c(-c3ccc(NC(=O)CCC(=O)NO)cc3)cc12)c1ccccc1` [Compound 24, (R) —N^1-Hydroxy-N^4-(4-(4-(1-phenylethylamino)-7H-pyrrolo[2,3-d]pyrimidin-6-yl)phenyl)succinamide], the half-maximal inhibitory concentration (IC50) at human HER2/ErbB2 was 100 to 1000 nM; in the data set with HDAC, > 10000 nM; on human VEGFR2 it was 100 to 1000 nM; on human EGFR, < 100 nM.

For `C[C@@H](Nc1ncnc2[nH]c(-c3ccc(NC(=O)CCCC(=O)NO)cc3)cc12)c1ccccc1` [Compound 25, (R)—N^1-Hydroxy-N^5-(4-(4-(1-phenylethylamino)-7H-pyrrolo[2,3-d]pyrimidin-6-yl)phenyl)glutaramide], the IC50 at human HER2/ErbB2 is 100 to 1000 nM; in the data set on HDAC, 100 to 1000 nM; on human VEGFR2, 100 to 1000 nM; at human EGFR, < 100 nM.

Regarding `C[C@@H](Nc1ncnc2[nH]c(-c3ccc(NC(=O)CCCCC(=O)NO)cc3)cc12)c1ccccc1` [Compound 26, (R) —N^1-Hydroxy-N^6-(4-(4-(1-phenylethylamino)-7H-pyrrolo[2,3-d]pyrimidin-6-yl)phenyl)adipamide], the IC50 against human HER2/ErbB2 was 100 to 1000 nM; with HDAC, < 100 nM; against human VEGFR2, 100 to 1000 nM; against human EGFR, < 100 nM.

Take `C[C@@H](Nc1ncnc2[nH]c(-c3ccc(NC(=O)CCCCCCC(=O)NO)cc3)cc12)c1ccccc1` [Compound 27, (R)—N^1-Hydroxy-N^8-(4-(4-(1-phenylethylamino)-7H-pyrrolo[2,3-d]pyrimidin-6-yl)phenyl)octanediamide]: the IC50 was 100 to 1000 nM against human HER2/ErbB2, < 100 nM with HDAC, 100 to 1000 nM on human VEGFR2 and < 100 nM against human EGFR.

Take `C[C@@H](Nc1ncnc2[nH]c(-c3ccc(C(=O)NCCNCC(=O)NO)cc3)cc12)c1ccccc1` [Compound 28, (R)—N-(2-(2-(Hydroxyamino)-2-oxoethylamino)ethyl)-4-(4-(1-phenylethylamino)-7H-pyrrolo[2,3-d]pyrimidin-6-yl)benzamide]: the IC50 against human HER2/ErbB2 is 100 to 1000 nM; with HDAC, > 10000 nM; against human VEGFR2, 100 to 1000 nM; on human EGFR, 100 to 1000 nM.

For `C[C@@H](Nc1ncnc2[nH]c(-c3ccc(C(=O)NCCNCCC(=O)NO)cc3)cc12)c1ccccc1` [Compound 29, (R)—N-(2-(3-(Hydroxyamino)-3-oxopropylamino)ethyl)-4-(4-(1-phenylethylamino)-7H-pyrrolo[2,3-d]pyrimidin-6-yl)benzamide], the IC50 on human HER2/ErbB2 was 100 to 1000 nM; with HDAC it was < 100 nM; against human VEGFR2, 100 to 1000 nM; at human EGFR it was < 100 nM.

`C[C@@H](Nc1ncnc2[nH]c(-c3ccc(C(=O)NCCNCCCCCC(=O)NO)cc3)cc12)c1ccccc1` [Compound 30, (R)—N-(2-(6-(Hydroxyamino)-6-oxohexylamino)ethyl)-4-(4-(1-phenylethylamino)-7H-pyrrolo[2,3-d]pyrimidin-6-yl)benzamide]: the half-maximal inhibitory concentration (IC50) at human HER2/ErbB2 is 100 to 1000 nM; in the data set with HDAC it was 100 to 1000 nM; on human VEGFR2, 100 to 1000 nM; against human EGFR, < 100 nM.

In the case of `C[C@@H](Nc1ncnc2[nH]c(-c3ccc(C(=O)NCCNCCCCCCC(=O)NO)cc3)cc12)c1ccccc1` [Compound 31, (R)—N-(2-(7-(Hydroxyamino)-7-oxoheptylamino)ethyl)-4-(4-(1-phenylethylamino)-7H-pyrrolo[2,3-d]pyrimidin-6-yl)benzamide], the IC50 is 100 to 1000 nM at human HER2/ErbB2, < 100 nM in the data set on HDAC, 100 to 1000 nM against human VEGFR2 and < 100 nM at human EGFR.

With `C[C@@H](Nc1ncnc2[nH]c(-c3ccc(CNCCCCCC(=O)NO)cc3)cc12)c1ccccc1` [Compound 32, (R)—N-hydroxy-6-(4-(4-(1-phenylethylamino)-7H-pyrrolo[2,3-d]pyrimidin-6-yl)benzylamino)hexanamide], the IC50 against human HER2/ErbB2 is 100 to 1000 nM; in the data set with HDAC it was 100 to 1000 nM; against human VEGFR2 it was 100 to 1000 nM; at human EGFR it was < 100 nM.

On to `C[C@@H](Nc1ncnc2[nH]c(-c3ccc(CNCCCCCCC(=O)NO)cc3)cc12)c1ccccc1` [Compound 33, (R)—N-hydroxy-7-(4-(4-(1-phenylethylamino)-7H-pyrrolo[2,3-d]pyrimidin-6-yl)benzylamino)heptanamide], for which the IC50 at human HER2/ErbB2 was 100 to 1000 nM; in the data set with HDAC, < 100 nM; on human VEGFR2, 100 to 1000 nM; against human EGFR, < 100 nM.

Turning to `O=C(CCCCCN1CCN(Cc2ccc(-c3cc4c(NCc5ccccc5)ncnc4[nH]3)cc2)CC1)NO` [Compound 36], the IC50 against human HER2/ErbB2, in the data set with HDAC, against human VEGFR2 and on human EGFR was 100 to 1000 nM each time.

For `C[C@@H](Nc1ncnc2[nH]c(-c3ccc(OCCCCCCC(=O)NO)cc3)cc12)c1ccc(F)cc1` [Compound 37], the IC50 against human HER2/ErbB2 was 100 to 1000 nM; in the data set on HDAC, < 100 nM; on human VEGFR2 it was 1000 to 10000 nM; on human EGFR, 100 to 1000 nM.

As for `O=C(CCCCCCOc1ccc(-c2cc3c(NCc4ccccc4)ncnc3[nH]2)cc1)NO` [Compound 38, 7-(4-(4-(benzylamino)-7H-pyrrolo[2,3-d]pyrimidin-6-yl)phenoxy)-N-hydroxyheptanamide], the IC50 against human HER2/ErbB2 was 1000 to 10000 nM; with HDAC, < 100 nM; on human VEGFR2, 1000 to 10000 nM; against human EGFR, 100 to 1000 nM.

As for `C[C@@H](Nc1ncnc2[nH]c(-c3ccc(C(=O)NO)cc3)cc12)c1ccccc1` [Compound 39, (R)—N-hydroxy-4-(4-(1-phenylethylamino)-7H-pyrrolo[2,3-d]pyrimidin-6-yl)benzamide], the IC50 was < 100 nM at human HER2/ErbB2, 100 to 1000 nM in the data set on HDAC, 100 to 1000 nM against human VEGFR2 and < 100 nM against human EGFR.

`O=C(NO)c1ccc(-c2cc3c(NCc4ccccc4)ncnc3[nH]2)cc1` [Compound 40]: the IC50 is 100 to 1000 nM on human HER2/ErbB2, 100 to 1000 nM in the data set on HDAC, 1000 to 10000 nM against human VEGFR2 and < 100 nM on human EGFR.

`C[C@@H](Nc1ncnc2[nH]c(-c3ccc(C(=O)NO)cc3)cc12)c1ccc(F)cc1` [Compound 41]: the IC50 was 100 to 1000 nM at human HER2/ErbB2, 100 to 1000 nM in the data set on HDAC, 100 to 1000 nM against human VEGFR2 and < 100 nM against human EGFR.

Take `C[C@@H](Nc1ncnc2[nH]c(-c3ccc(NCc4ccc(/C=C/C(=O)NO)cc4)cc3)cc12)c1ccccc1` [Compound 42, (R,E)-N-Hydroxy-3-(4-((4-(4-(1-phenylethylamino)-7H-pyrrolo[2,3-d]pyrimidin-6-yl)phenylamino)methyl)phenyl)acrylamide]: the IC50 on human HER2/ErbB2 was 1000 to 10000 nM; with HDAC it was 100 to 1000 nM; against human VEGFR2, 1000 to 10000 nM; at human EGFR, < 100 nM.

Turning to `C[C@@H](Nc1ncnc2[nH]c(-c3ccc(NCc4ccc(C(=O)NO)cc4)cc3)cc12)c1ccccc1` [Compound 43, (R)—N-Hydroxy-4-((4-(4-(1-phenylethylamino)-7H-pyrrolo[2,3-d]pyrimidin-6-yl)phenylamino)methyl)benzamide], the IC50 was 100 to 1000 nM at human HER2/ErbB2, 100 to 1000 nM in the data set on HDAC, 1000 to 10000 nM against human VEGFR2 and < 100 nM at human EGFR.

As for `C[C@@H](Nc1ncnc2[nH]c(-c3ccc(CNCc4ccc(C(=O)NO)cc4)cc3)cc12)c1ccccc1` [Compound 44, (R)—N-hydroxy-4-((4-(4-(1-phenylethylamino)-7H-pyrrolo[2,3-d]pyrimidin-6-yl)benzylamino)methyl)benzamide], the half-maximal inhibitory concentration (IC50) on human HER2/ErbB2 is 100 to 1000 nM; in the data set on HDAC, 100 to 1000 nM; on human VEGFR2 it was 100 to 1000 nM; at human EGFR, < 100 nM.

Regarding `C[C@@H](Nc1ncnc2[nH]c(-c3ccc(OCCNCCCCCCC(=O)NO)cc3)cc12)c1ccccc1` [Compound 60, (R)—N-hydroxy-7-(2-(4-(4-(1-phenylethylamino)-7H-pyrrolo[2,3-d]pyrimidin-6-yl)phenoxy)ethylamino)heptanamide], the IC50 against human HER2/ErbB2 was < 100 nM; with HDAC, 100 to 1000 nM; against human VEGFR2 it was < 100 nM; at human EGFR, < 100 nM.

Consider `C[C@@H](Nc1ncnc2[nH]c(-c3ccc(NCCCCCCC(=O)NO)cc3)cc12)c1ccccc1` [Compound 67, (R)—N-hydroxy-7-(4-(4-(1-phenylethylamino)-7H-pyrrolo[2,3-d]pyrimidin-6-yl)phenylamino)heptanamide], for which the IC50 against human HER2/ErbB2 is < 100 nM; in the data set with HDAC, < 100 nM; at human VEGFR2 it was 100 to 1000 nM; against human EGFR it was < 100 nM.
